The values that follow come from US7700610B2, “Use of tyrosine kinase inhibitors for treating allergic diseases” (AB Science, priority 2001, dated 2010).

Experiment [1] concerns dog afflicted with severe atopic dermatitis. To be noted: 3 year old dog with severe atopic dermatitis, 3 mg/kg/d together with cefalexine and ketoconazole.
Another experiment relates to dog cutaneous mast cells. To be noted: in vitro, Garcia and DeMora, Am J Vet Res 1997; cited from earlier work.

For `Cc1ccc(NC(=O)c2ccc(CN3CCN(C)CC3)cc2)cc1Nc1nccc(-c2cccnc2)n1` [4-(4-méthylpipérazine-1-ylméthyl)-N-[4-méthyl-3-[(4-pyridine-3-yl-)pyrimidine-2Yl)amino-)]phényl]-benzamide], the “superficial pyodermatitis and generalized Malassezia dermatitis following treatment (FIG. 3)” value in experiment [1] was “resolution of the superficial pyodermatitis and generalized Malassezia dermatitis”. Turning to `CCOC(=O)N1CCC(=C2c3ccc(Cl)cc3CCc3cccnc32)CC1` [loratadine], in the experiment on dog cutaneous mast cells, the “inhibition of histamine release” value was “potent inhibition” and the prodegranulating effect entry is reported as “without a substantial prodegranulating effect”.
